Key:
[1] = target: T1, Human neuropeptide Y (NPY-Y1) (Homo sapiens, UniProt P25929); test: Radioligand binding, human neuropeptide Y NPY-Y1 membranes, FlashPlate, [125I]-PYY; conditions: compound at 10 μM; for A9 radioligand binding inhibition: human NPY-Y1 membranes; for A9: inhibition of radioligand binding, human neuropeptide Y (NPY-Y1): [125I]-PYY
T1 construct: purchased Perkin Elmer Biosignal
T1 sequence (P25929 1-384): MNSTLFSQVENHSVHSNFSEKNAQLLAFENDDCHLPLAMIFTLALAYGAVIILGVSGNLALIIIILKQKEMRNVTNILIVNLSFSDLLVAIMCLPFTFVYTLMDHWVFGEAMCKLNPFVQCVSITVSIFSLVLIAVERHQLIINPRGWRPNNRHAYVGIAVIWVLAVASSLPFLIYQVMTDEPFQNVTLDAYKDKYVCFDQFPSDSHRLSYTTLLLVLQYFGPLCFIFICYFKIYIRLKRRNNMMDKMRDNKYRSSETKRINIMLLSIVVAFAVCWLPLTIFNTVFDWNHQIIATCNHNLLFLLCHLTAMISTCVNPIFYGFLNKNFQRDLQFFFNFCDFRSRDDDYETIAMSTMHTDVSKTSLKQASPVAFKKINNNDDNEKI
In short: (§1)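 Cloned human receptor membranes were coated onto FlashPlate wells and incubated with radioligand and compound (added from a 0.5 mM DMSO daughter plate) for 1 hour at room temperature in the dark. Scintillation counting gave percent inhibition, with DMSO defining total and reference ligand defining non-specific binding.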

Human Melanocortin (MC3) = target: T2, Human Melanocortin (MC3) (Homo sapiens, UniProt P41968); test: Radioligand binding, human melanocortin MC3 membranes, FlashPlate, [125I]-NDP-αMSH; conditions: compound at 10 μM; for A3 radioligand binding inhibition: human melanocortin MC3 membranes; for A3: inhibition of radioligand binding, human melanocortin (MC3): [125I]-NDP-αMSH
T2 construct: purchased Perkin Elmer Biosignal
In short: as §1

Human δ-opioid (DOP) = target: T3, Human δ-opioid (DOP) (Homo sapiens, UniProt P41143); test: Radioligand binding, human δ-opioid (DOP) membranes, FlashPlate, [3H]-Bremazocine; conditions: compound at 10 μM; for A1 radioligand binding inhibition: human δ-opioid (DOP) membranes; for A1: inhibition of radioligand binding, human δ-opioid (DOP): [3H]-Bremazocine
T3 construct: purchased Perkin Elmer Biosignal
In short: as §1

Human opioid (ORL1) = target: T4, Human opioid (ORL1) (Homo sapiens, UniProt P41146); test: Radioligand binding, human opioid ORL1 membranes, FlashPlate, [125I]-Nociceptin; conditions: compound at 10 μM; for A10 radioligand binding inhibition: human ORL1 membranes; for A10: inhibition of radioligand binding, human opioid (ORL1): [125I]-Nociceptin
T4 construct: purchased Perkin Elmer Biosignal
In short: as §1

Human μ-opioid (MOP) = target: T5, Human μ-opioid (MOP) (Homo sapiens, UniProt P35372); test: Radioligand binding, human μ-opioid (MOP) membranes, FlashPlate, [3H]-Naloxone; conditions: compound at 10 μM; for A7 radioligand binding inhibition: human μ-opioid (MOP) membranes; for A7: inhibition of radioligand binding, human μ-opioid (MOP): [3H]-Naloxone
T5 construct: purchased Perkin Elmer Biosignal
In short: as §1

Human κ-Opioid (KOP) = target: T6, Human κ-Opioid (KOP) (Homo sapiens, UniProt P41145); test: Radioligand binding, human κ-opioid (KOP) membranes, filtration, [3H]-Diprenorphine; conditions: compound at 10 μM; for A2 radioligand binding inhibition: human κ-opioid (KOP) membranes; for A2: inhibition of radioligand binding, human κ-opioid (KOP): [3H]-Diprenorphine
T6 construct: purchased Perkin Elmer Biosignal
In short: (§2)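 Percent inhibition of radioligand binding measured on recombinant human membranes: NK1 with [125I]-Substance P, KOP with [3H]-Diprenorphine. Incubation 1 h at room temperature, then harvest onto 0.3% PEI-soaked filters, cold Tris-HCl pH 7.4 washes and scintillation counting; non-specific binding from reference ligand wells.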

Human Melanocortin (MC4) = target: T7, Human Melanocortin (MC4) (Homo sapiens, UniProt P32245); test: Radioligand binding, human melanocortin MC4 membranes, FlashPlate, [125I]-NDP-αMSH; conditions: compound at 10 μM; for A4 radioligand binding inhibition: human melanocortin MC4 membranes; for A4: inhibition of radioligand binding, human melanocortin (MC4): [125I]-NDP-αMSH
T7 construct: purchased Perkin Elmer Biosignal
In short: as §1

[2] = target: T8, Human melanin-concentrating hormone (MCH1) (Homo sapiens, UniProt Q99705); test: Radioligand binding, human melanin-concentrating hormone MCH1 membranes, FlashPlate, [125I]-S36057; conditions: compound at 10 μM; for A6 radioligand binding inhibition: human MCH1 membranes; for A6: inhibition of radioligand binding, human melanin-concentrating hormone (MCH1): [125I]-S36057
T8 construct: purchased Perkin Elmer Biosignal
In short: as §1

Human melanocortin (MC5) = target: T9, Human melanocortin (MC5) (Homo sapiens, UniProt P33032); test: Radioligand binding, human melanocortin MC5 membranes, FlashPlate, [125I]-NDP-αMSH; conditions: compound at 10 μM; for A5 radioligand binding inhibition: human melanocortin MC5 membranes; for A5: inhibition of radioligand binding, human melanocortin (MC5): [125I]-NDP-αMSH
T9 construct: purchased Perkin Elmer Biosignal
In short: as §1

Mouse urotensin (mUR2) = target: T10, Mouse urotensin (mUR2) (Mus musculus, UniProt Q8VIH9); test: Radioligand binding, mouse urotensin mUR2 membranes, FlashPlate, [125I]-Urotensin II; conditions: compound at 10 μM; for A11 radioligand binding inhibition: mouse urotensin mUR2 membranes; for A11: inhibition of radioligand binding, mouse urotensin (mUR2): [125I]-Urotensin II
T10 construct: purchased Perkin Elmer Biosignal
T10 sequence (Q8VIH9 1-385): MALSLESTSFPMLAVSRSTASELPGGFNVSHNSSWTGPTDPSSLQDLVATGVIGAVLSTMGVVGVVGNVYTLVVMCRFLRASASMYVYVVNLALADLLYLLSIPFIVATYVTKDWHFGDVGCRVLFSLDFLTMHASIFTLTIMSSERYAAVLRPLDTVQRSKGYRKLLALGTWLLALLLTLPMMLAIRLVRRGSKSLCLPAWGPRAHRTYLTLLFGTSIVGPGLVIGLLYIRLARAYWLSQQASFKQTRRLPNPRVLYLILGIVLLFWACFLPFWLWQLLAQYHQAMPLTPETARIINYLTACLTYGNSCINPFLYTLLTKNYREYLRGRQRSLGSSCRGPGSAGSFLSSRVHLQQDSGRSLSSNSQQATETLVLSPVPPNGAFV
In short: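 Cloned mouse urotensin (mUR2) receptor membranes from Perkin Elmer Biosignal were immobilized in FlashPlate microplates using a proprietary coating. Each well got 19.5 μl buffer, then 0.5 μl of DMSO, reference ligand, or compound. Adding 5 μl of [125I]-Urotensin II, diluted to 5× final concentration in binding buffer, started binding. Plates were sealed with TopSeal-A and incubated 1 hour at room temperature in the dark. Wells were counted for 30 seconds each on a TopCount after a 60-second delay, and percentage inhibition was calculated.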

Human neurokinin (NK1) = target: T11, Human neurokinin (NK1) (Homo sapiens, UniProt P25103); test: Radioligand binding, human neurokinin NK1 membranes, filtration, [125I]-Substance P; conditions: compound at 10 μM; for A8 radioligand binding inhibition: human neurokinin NK1 membranes; for A8: inhibition of radioligand binding, human neurokinin (NK1): [125I]-Substance P
T11 construct: purchased Perkin Elmer Biosignal
In short: as §2

T7 sequence (P32245 whole entry): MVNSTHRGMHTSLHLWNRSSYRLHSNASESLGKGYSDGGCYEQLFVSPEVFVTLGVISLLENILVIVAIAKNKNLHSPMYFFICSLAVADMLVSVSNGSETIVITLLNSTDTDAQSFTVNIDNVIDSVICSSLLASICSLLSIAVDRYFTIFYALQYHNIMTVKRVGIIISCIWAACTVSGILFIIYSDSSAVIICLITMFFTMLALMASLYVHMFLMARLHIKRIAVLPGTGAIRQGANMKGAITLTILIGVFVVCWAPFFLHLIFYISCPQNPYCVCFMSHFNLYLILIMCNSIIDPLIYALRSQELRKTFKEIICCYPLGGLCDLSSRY
T6 sequence (P41145 whole entry): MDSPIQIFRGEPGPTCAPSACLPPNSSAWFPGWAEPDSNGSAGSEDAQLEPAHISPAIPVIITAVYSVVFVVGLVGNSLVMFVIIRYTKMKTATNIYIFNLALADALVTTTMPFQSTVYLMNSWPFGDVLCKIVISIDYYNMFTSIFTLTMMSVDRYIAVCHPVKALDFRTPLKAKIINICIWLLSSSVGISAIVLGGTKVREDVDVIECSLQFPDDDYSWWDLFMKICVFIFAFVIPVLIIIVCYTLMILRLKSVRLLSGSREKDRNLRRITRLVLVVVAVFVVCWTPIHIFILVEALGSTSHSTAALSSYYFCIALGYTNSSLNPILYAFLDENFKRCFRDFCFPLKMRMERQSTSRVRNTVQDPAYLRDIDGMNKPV
T2 sequence (P41968 whole entry): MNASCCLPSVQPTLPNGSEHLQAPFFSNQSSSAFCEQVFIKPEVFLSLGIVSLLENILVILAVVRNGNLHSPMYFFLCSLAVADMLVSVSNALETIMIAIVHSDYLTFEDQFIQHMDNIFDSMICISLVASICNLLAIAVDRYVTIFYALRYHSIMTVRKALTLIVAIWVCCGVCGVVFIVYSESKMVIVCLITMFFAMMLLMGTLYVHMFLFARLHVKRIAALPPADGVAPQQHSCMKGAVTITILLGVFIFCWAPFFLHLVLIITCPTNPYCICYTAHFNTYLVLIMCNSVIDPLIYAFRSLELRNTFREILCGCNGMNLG
T11 sequence (P25103 whole entry): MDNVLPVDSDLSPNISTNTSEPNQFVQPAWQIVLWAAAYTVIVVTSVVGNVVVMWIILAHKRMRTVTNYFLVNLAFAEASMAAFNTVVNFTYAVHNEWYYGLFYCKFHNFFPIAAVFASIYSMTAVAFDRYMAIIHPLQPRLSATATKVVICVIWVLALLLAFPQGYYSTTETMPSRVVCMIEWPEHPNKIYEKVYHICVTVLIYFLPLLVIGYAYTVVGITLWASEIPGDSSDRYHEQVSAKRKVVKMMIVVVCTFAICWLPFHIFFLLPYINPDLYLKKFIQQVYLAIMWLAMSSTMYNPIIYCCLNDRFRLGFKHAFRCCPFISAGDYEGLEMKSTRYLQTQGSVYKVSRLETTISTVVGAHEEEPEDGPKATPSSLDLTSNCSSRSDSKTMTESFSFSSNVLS
T9 sequence (P33032 whole entry): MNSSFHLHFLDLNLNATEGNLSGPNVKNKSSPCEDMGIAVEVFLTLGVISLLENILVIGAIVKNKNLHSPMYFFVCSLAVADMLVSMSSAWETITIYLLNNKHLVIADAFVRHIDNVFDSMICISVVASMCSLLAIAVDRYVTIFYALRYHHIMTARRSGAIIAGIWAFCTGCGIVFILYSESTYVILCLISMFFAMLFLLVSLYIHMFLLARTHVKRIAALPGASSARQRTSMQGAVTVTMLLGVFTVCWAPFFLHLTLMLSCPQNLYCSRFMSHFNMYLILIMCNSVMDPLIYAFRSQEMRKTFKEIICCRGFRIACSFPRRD
T8 sequence (Q99705 whole entry): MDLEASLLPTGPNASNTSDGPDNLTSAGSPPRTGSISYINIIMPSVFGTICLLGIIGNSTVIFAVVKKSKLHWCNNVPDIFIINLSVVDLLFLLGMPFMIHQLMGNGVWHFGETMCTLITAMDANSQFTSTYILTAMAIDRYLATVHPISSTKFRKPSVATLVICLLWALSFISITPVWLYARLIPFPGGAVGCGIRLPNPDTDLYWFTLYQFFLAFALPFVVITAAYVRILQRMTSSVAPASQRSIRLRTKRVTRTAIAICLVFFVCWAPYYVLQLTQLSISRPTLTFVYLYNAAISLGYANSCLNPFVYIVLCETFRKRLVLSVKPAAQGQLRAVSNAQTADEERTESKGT
T3 sequence (P41143 whole entry): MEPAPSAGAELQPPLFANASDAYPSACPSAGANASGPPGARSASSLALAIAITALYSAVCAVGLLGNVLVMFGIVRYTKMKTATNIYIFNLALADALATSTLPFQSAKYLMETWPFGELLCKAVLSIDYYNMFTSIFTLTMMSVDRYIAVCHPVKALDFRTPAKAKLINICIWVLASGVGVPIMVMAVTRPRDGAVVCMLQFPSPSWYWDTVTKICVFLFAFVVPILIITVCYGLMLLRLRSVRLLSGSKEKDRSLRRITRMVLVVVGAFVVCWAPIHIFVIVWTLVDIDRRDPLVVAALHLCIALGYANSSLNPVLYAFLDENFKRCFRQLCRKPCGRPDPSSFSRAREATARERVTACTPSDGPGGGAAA
T4 sequence (P41146 whole entry): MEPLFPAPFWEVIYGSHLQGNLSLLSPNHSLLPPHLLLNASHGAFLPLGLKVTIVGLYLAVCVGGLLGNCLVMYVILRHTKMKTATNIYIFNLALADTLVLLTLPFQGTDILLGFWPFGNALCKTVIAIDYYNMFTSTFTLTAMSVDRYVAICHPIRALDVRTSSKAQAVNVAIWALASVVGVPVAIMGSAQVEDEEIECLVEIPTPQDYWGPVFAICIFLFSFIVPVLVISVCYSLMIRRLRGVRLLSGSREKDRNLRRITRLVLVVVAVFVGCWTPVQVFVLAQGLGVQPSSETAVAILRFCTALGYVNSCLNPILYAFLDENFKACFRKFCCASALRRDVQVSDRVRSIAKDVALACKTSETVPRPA
T5 sequence (P35372 whole entry): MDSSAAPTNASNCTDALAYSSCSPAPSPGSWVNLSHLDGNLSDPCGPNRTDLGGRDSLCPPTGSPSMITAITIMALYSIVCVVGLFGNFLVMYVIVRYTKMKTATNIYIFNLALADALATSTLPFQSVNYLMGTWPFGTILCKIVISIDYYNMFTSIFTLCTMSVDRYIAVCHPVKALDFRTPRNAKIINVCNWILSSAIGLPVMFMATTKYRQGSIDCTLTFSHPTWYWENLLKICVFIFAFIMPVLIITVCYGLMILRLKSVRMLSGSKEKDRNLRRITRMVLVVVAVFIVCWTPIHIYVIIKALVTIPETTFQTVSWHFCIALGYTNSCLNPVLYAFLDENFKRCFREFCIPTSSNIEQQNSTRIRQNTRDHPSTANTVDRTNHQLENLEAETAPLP

Compound	A9 radioligand binding inhibition [1]	A3 radioligand binding inhibition (Human Melanocortin (MC3))	A1 radioligand binding inhibition (Human δ-opioid (DOP))	A10 radioligand binding inhibition (Human opioid (ORL1))	A7 radioligand binding inhibition (Human μ-opioid (MOP))	A2 radioligand binding inhibition (Human κ-Opioid (KOP))	A4 radioligand binding inhibition (Human Melanocortin (MC4))	A6 radioligand binding inhibition [2]	A5 radioligand binding inhibition (Human melanocortin (MC5))	A11 radioligand binding inhibition (Mouse urotensin (mUR2))	A9: inhibition of radioligand binding, human neuropeptide Y (NPY-Y1) [1]	A3: inhibition of radioligand binding, human melanocortin (MC3) (Human Melanocortin (MC3))	A1: inhibition of radioligand binding, human δ-opioid (DOP) (Human δ-opioid (DOP))	A7: inhibition of radioligand binding, human μ-opioid (MOP) (Human μ-opioid (MOP))	A2: inhibition of radioligand binding, human κ-opioid (KOP) (Human κ-Opioid (KOP))	A4: inhibition of radioligand binding, human melanocortin (MC4) (Human Melanocortin (MC4))	A6: inhibition of radioligand binding, human melanin-concentrating hormone (MCH1) [2]	A5: inhibition of radioligand binding, human melanocortin (MC5) (Human melanocortin (MC5))	A11: inhibition of radioligand binding, mouse urotensin (mUR2) (Mouse urotensin (mUR2))	A8: inhibition of radioligand binding, human neurokinin (NK1) (Human neurokinin (NK1))	other results
CO[C@H]1[C@H](O)[C@@H](COCc2ccc3ccccc3c2)OC(OCc2ccccc2)[C@@H]1NC(=O)CCCNC(=N)N (stereo partly shown) [compound 89]	− (“−” indicates less than 50% inhibition at 10 μM)	− (“−” indicates less than 50% inhibition at 10 μM)	− (“−” indicates less than 50% inhibition at 10 μM)	− (“−” indicates less than 50% inhibition at 10 μM)	+ (“+” indicates greater than 50% inhibition at 10 μM)	− (“−” indicates less than 50% inhibition at 10 μM)	− (“−” indicates less than 50% inhibition at 10 μM)	− (“−” indicates less than 50% inhibition at 10 μM)	− (“−” indicates less than 50% inhibition at 10 μM)	− (“−” indicates less than 50% inhibition at 10 μM)	–	–	–	–	–	–	–	–	–	–	A8 radioligand binding inhibition (Human neurokinin (NK1)): + (“+” indicates greater than 50% inhibition at 10 μM)
NCCC(=O)NC1C(OCc2ccc(Cl)cc2)OC(COCc2ccc3ccccc3c2)C(O)C1OCc1ccccc1 (single isomer, unassigned) [compound 484]	–	–	–	–	–	–	–	–	–	–	− (“−” indicates less than 50% inhibition at 10 μM)	− (“−” indicates less than 50% inhibition at 10 μM)	− (“−” indicates less than 50% inhibition at 10 μM)	− (“−” indicates less than 50% inhibition at 10 μM)	− (“−” indicates less than 50% inhibition at 10 μM)	− (“−” indicates less than 50% inhibition at 10 μM)	− (“−” indicates less than 50% inhibition at 10 μM)	+ (“+” indicates greater than 50% inhibition at 10 μM)	− (“−” indicates less than 50% inhibition at 10 μM)	+ (“+” indicates greater than 50% inhibition at 10 μM)	A10: inhibition of radioligand binding, human opioid (ORL1) (Human opioid (ORL1)): − (“−” indicates less than 50% inhibition at 10 μM)
COC[C@H]1OC(OCc2ccccc2)[C@H](NC(=O)CCCNC(=N)N)[C@@H](OCc2ccc(-c3ccccc3)cc2)[C@@H]1O (stereo partly shown) [compound 25]	− (“−” indicates less than 50% inhibition at 10 μM)	− (“−” indicates less than 50% inhibition at 10 μM)	− (“−” indicates less than 50% inhibition at 10 μM)	− (“−” indicates less than 50% inhibition at 10 μM)	− (“−” indicates less than 50% inhibition at 10 μM)	− (“−” indicates less than 50% inhibition at 10 μM)	+ (“+” indicates greater than 50% inhibition at 10 μM)	+ (“+” indicates greater than 50% inhibition at 10 μM)	+ (“+” indicates greater than 50% inhibition at 10 μM)	− (“−” indicates less than 50% inhibition at 10 μM)	–	–	–	–	–	–	–	–	–	–	A8 radioligand binding inhibition (Human neurokinin (NK1)): + (“+” indicates greater than 50% inhibition at 10 μM)
N=C(N)NCC(=O)N[C@H]1C(OCc2ccc(Cl)cc2)O[C@H](COCc2ccc(Cl)cc2)[C@@H](O)[C@@H]1OCc1ccc(-c2ccccc2)cc1 (stereo partly shown) [compound 520]	–	–	–	–	–	–	–	–	–	–	− (“−” indicates less than 50% inhibition at 10 μM)	+ (“+” indicates greater than 50% inhibition at 10 μM)	− (“−” indicates less than 50% inhibition at 10 μM)	− (“−” indicates less than 50% inhibition at 10 μM)	− (“−” indicates less than 50% inhibition at 10 μM)	+ (“+” indicates greater than 50% inhibition at 10 μM)	+ (“+” indicates greater than 50% inhibition at 10 μM)	+ (“+” indicates greater than 50% inhibition at 10 μM)	− (“−” indicates less than 50% inhibition at 10 μM)	+ (“+” indicates greater than 50% inhibition at 10 μM)	A10: inhibition of radioligand binding, human opioid (ORL1) (Human opioid (ORL1); 10 µM): − (“−” indicates less than 50% inhibition at 10 μM)
CSC1OC(COCc2ccccc2)C(O)C(OCc2ccc3ccccc3c2)C1NC(=O)CCCNC(=N)N (stereo not shown) [compound 305]	–	–	–	–	–	–	–	–	–	–	− (“−” indicates less than 50% inhibition at 10 μM)	− (“−” indicates less than 50% inhibition at 10 μM)	− (“−” indicates less than 50% inhibition at 10 μM)	− (“−” indicates less than 50% inhibition at 10 μM)	− (“−” indicates less than 50% inhibition at 10 μM)	− (“−” indicates less than 50% inhibition at 10 μM)	− (“−” indicates less than 50% inhibition at 10 μM)	+ (“+” indicates greater than 50% inhibition at 10 μM)	− (“−” indicates less than 50% inhibition at 10 μM)	+ (“+” indicates greater than 50% inhibition at 10 μM)	A10: inhibition of radioligand binding, human opioid (ORL1) (Human opioid (ORL1)): − (“−” indicates less than 50% inhibition at 10 μM)

From patent US20080009418A1, “Selective Inhibitors” (Alchemia LTD., priority 2004, published 2008)
